Results: patent US20060069132A1, “Azolecarboxamide herbicides” (priority 2004, published 2006)

What was measured:
[1] = tested on: velvetleaf; assay: Test C pre-/postemergence herbicide test; assay type: in vivo, Abutilon theophrasti; conditions: for Velvetleaf plant response rating: Preemergence, scale 0 to 100, 0 no effect, 100 complete control
Procedure, shortened: (§1)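 Greenhouse-grown plants were evaluated visually 12 to 14 days after treatment, with 100 meaning complete control and 0 no effect. Application was preemergence, or postemergence at 2 to 18 cm.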

[2] = tested on: eastern black nightshade; assay: Test C pre-/postemergence herbicide test; assay type: in vivo, Solanum ptycanthum; conditions: for Nightshade plant response rating: Preemergence, scale 0 to 100, 0 no effect, 100 complete control
Excerpt: Seeds of plant species selected from bermudagrass (Cynodon dactylon (L.) Pers.), Surinam grass (Urochloa decumbens (Staph) R. D. Webster, previously named Brachiaria decumbens Stapf), cocklebur (Xanthium strumarium L.), corn (Zea mays L.), large crabgrass (Digitaria sanguinalis (L.) Scop.), woolly cupgrass (Eriochloa villosa (Thunb.) Kunth), giant foxtail (Setaria faberi Herrm.), goosegrass (Eleusine indica (L.) Gaertn.), johnsongrass (Sorghum halepense (L.) Pers.), kochia (Kochia scoparia (L.) Schrad.), lambsquarters (Chenopodium album L.), morningglory (Ipomoea coccinea L.), eastern black nightshade (Solanum ptycanthum Dunal), yellow nutsedge (Cyperus esculentus L.), pigweed (Amaranthus retroflexus L.), common ragweed (Ambrosia elatior L.), soybean (Glycine max (L.) Merr.), common (oilseed) sunflower (Helianthus annuus L.) and velvetleaf (Abutilon theophrasti Medik.) were planted and treated preemergence with test chemicals formulated in a non-phytotoxic solvent mixture which included a surfactant.
At the same time, plants selected from these crop and weed species and also winter barley (Hordeum vulgare L.), blackgrass (Alopecurus myosuroides Huds.), canarygrass (Phalaris minor Retz.), chickweed (Stellaria media (L.) Vill.), downy bromegrass (Bromus tectorum L.), green foxtail (Setaria viridis (L.) Beauv.), Italian ryegrass (Lolium multiflorum Lam.), wheat (Triticum aestivum L.), wild oat (Avenafatua L.) and windgrass (Apera spica-venti (L.) Beauv.) were treated with postemergence applications of some of the test chemicals formulated in the same manner. Plants ranged in height from 2 to 18 cm (1- to 4-leaf stage) for postemergence treatments. Plant species in the flooded paddy test consisted of rice (Oryza sativa), smallflower umbrella sedge (Cyperus difformis L.), ducksalad (Heteranthera limosa (Sw.) Willd.) and barnyardgrass (Echinochloa crus-galli (L.) Beauv.) grown to the 2-leaf stage for testing. Treated plants and controls were maintained in a greenhouse for 12 to 14 days, after which time all species were compared to controls and visually evaluated. Plant response ratings, summarized in Table C, are based on a scale of 0 to 100 where 0 is no effect and 100 is complete control. A dash (-) response means no test result.

[3] = tested on: bermudagrass; assay: Test C pre-/postemergence herbicide test; assay type: in vivo, Cynodon dactylon
Procedure, shortened: as §1

[4] = tested on: large crabgrass; assay: Test C pre-/postemergence herbicide test; assay type: in vivo, Digitaria sanguinalis; conditions: for Crabgrass, Large plant response rating: Preemergence, scale 0 to 100, 0 no effect, 100 complete control
Procedure, shortened: as §1

[5] = tested on: ducksalad; assay: Test C flooded paddy test; assay type: in vivo, Heteranthera limosa; conditions: for Plant response rating, Ducksalad: 500 g ai/ha, visual rating after 12 to 14 days
[6] = 62 g ai/ha, preemergence, scale 0 to 100
[7] = 250 g ai/ha, scale 0-100, preemergence
[8] = 500 g ai/ha, scale 0 to 100 (0 no effect, 100 complete control), visual, 12 to 14 days, preemergence
[9] = 125 g ai/ha, scale 0 (no effect) to 100 (complete control), visual, 12 to 14 days, preemergence
[10] = 62 g ai/ha, preemergence, scale 0 to 100, 0 no effect, 100 complete control
[11] = Preemergence, 500 g ai/ha, scale 0 to 100, 0 no effect, 100 complete control
[12] = 125 g ai/ha, scale 0 to 100 (0 no effect, 100 complete control)
[13] = 250 g ai/ha, scale of 0 to 100, 0 is no effect, 100 is complete control
[14] = scale 0 to 100 (0 no effect, 100 complete control)
[15] = 250 g ai/ha, scale 0 to 100 (0 no effect, 100 complete control), visual, 12 to 14 days, preemergence
[16] = 62 g ai/ha, scale 0 to 100 (0 no effect, 100 complete control)

Row | Compound | Plant response rating, Velvetleaf [1, 6] | Plant response rating, Velvetleaf [1, 7] | Plant response rating, Velvetleaf [1, 8] | Plant response rating, Nightshade [2, 6] | Plant response rating, Nightshade [2, 9] | Plant response rating, Nightshade [2, 7] | Plant response rating, Nightshade [2, 8] | Plant response rating, Bermudagrass [3, 10] | Plant response rating, Bermudagrass [3, 9] | Plant response rating, Bermudagrass [3, 7] | Bermudagrass plant response rating [3, 11] | Plant response rating, Crabgrass, Large [4, 6] | Plant response rating, Crabgrass, Large [4, 9] | Plant response rating, Crabgrass, Large [4, 7] | Plant response rating, Crabgrass, Large [4, 8] | Ducksalad plant response rating ([5]; 62 g ai/ha, scale 0 to 100) | Ducksalad plant response rating [5, 12] | Ducksalad plant response rating [5, 13] | Plant response rating, Ducksalad [5, 14] | Velvetleaf plant response rating ([1]; 500 g ai/ha) | further results
1 | CCN(C)C(=O)c1ccc(F)c(NC(=O)C2CC(C(C)(C)C)=NN2CC)c1 (racemic) [Compound 307] | 70 | 100 | 100 | 100 | 100 | 100 | 100 | 90 | 100 | 100 | 100 | 80 | 100 | 100 | 100 | 60 | 70 | 90 | 90 |  | 
2 | CCC1=NN(C(C)(C)C)CC1C(=O)Nc1cc(C(=O)N(C)C)ccc1F (racemic) [Compound 343] | 60 | 100 | 100 | 60 |  | 90 | 95 | 60 |  | 90 |  | 50 |  | 80 | 100 | 40 | 80 | 90 | 90 |  | Plant response rating (0 = no effect, 100 = complete control), Velvetleaf ([1]; 125 g ai/ha, preemergence): 80; Plant response rating (0 = no effect, 100 = complete control), Nightshade ([2]; 125 g ai/ha, preemergence): 60; Plant response rating (0 = no effect, 100 = complete control), Bermudagrass ([3]; 125 g ai/ha, preemergence): 70; Plant response rating, Bermudagrass [3, 8]: 90; Plant response rating (0 = no effect, 100 = complete control), Crabgrass, Large ([4]; 125 g ai/ha, preemergence): 80
3 | CCN(C)C(=O)c1cccc(NC(=O)c2cc(C(C)(C)C)nn2CC)c1 [Compound 48] |  |  |  |  | 80 |  |  |  | 90 |  | 95 |  | 30 |  |  |  |  |  |  | 70 | Plant response rating (0 = no effect, 100 = complete control), Velvetleaf ([1]; 62 g ai/ha, preemergence): 0; Plant response rating, Velvetleaf [1, 9]: 0; Plant response rating, Velvetleaf [1, 15]: 10; Plant response rating (0 = no effect, 100 = complete control), Nightshade ([2]; 62 g ai/ha, preemergence): 50; Plant response rating, Nightshade [2, 15]: 95; Nightshade plant response rating ([2]; 500 g ai/ha): 100; Plant response rating (0 = no effect, 100 = complete control), Bermudagrass ([3]; 62 g ai/ha, preemergence): 80; Plant response rating, Bermudagrass [3, 15]: 90; Plant response rating (0 = no effect, 100 = complete control), Crabgrass, Large ([4]; 62 g ai/ha, preemergence): 0; Plant response rating, Crabgrass, Large [4, 15]: 70; Crabgrass, Large plant response rating ([4]; 500 g ai/ha): 90; Ducksalad plant response rating ([5]; 16 g ai/ha, scale 0 to 100): 0; Ducksalad plant response rating ([5]; 31 g ai/ha, scale 0 to 100): 0; Ducksalad plant response rating [5, 16]: 20; Ducksalad plant response rating ([5]; 125 g ai/ha, scale of 0 to 100, 0 is no effect, 100 is complete control): 40
4 | CCn1nc(C(C)(C)C)cc1C(=O)Nc1cccc(C(N)=O)n1 [Compound 162, 6-[[[3-(1,1-dimethylethyl)-1-ethyl-1H-pyrazol-5-yl]carbonyl]amino]-2-pyridinecarboxamide] | 70 |  |  | 80 | 100 |  |  | 0 | 0 |  | 40 | 35 | 40 |  |  |  | 85 | 95 | 100 | 100 | Plant response rating, Velvetleaf [1, 9]: 75; Nightshade plant response rating ([2]; 500 g ai/ha): 100; Plant response rating, Bermudagrass [3, 15]: 20; Plant response rating, Crabgrass, Large [4, 15]: 80; Crabgrass, Large plant response rating ([4]; 500 g ai/ha): 100; Ducksalad plant response rating [5, 16]: 70
5 | CCc1nn(C(C)(C)C)cc1C(=O)Nc1cccc(C(=O)N(CC)CC)c1 [Compound 182, N-[3-[(diethylamino)carbonyl]phenyl]-1-(1,1-dimethylethyl)-3-ethyl-1H-pyrazole-4-carboxamide] |  |  |  |  |  |  |  |  |  |  |  |  |  |  |  |  |  |  |  | 100 | pest or weed control at 62 g/ha ([1]; Abutilon theophrasti, pre-emergence, 62 g ai/ha, preemergence, scale 0 to 100, read-out: Plant response rating, Velvetleaf): 0%; pest or weed control at 125 g/ha ([1]; Abutilon theophrasti, pre-emergence, 125 g ai/ha, scale 0 (no effect) to 100 (complete control), visual, 12 to 14 days, read-out: Plant response rating, Velvetleaf): 0%; Nightshade plant response rating ([2]; 500 g ai/ha): 95; pest or weed control at 62 g/ha ([2]; pre-emergence, 62 g ai/ha, preemergence, scale 0 to 100, read-out: Plant response rating, Nightshade): 70%; pest or weed control at 125 g/ha ([2]; pre-emergence, 125 g ai/ha, scale 0 (no effect) to 100 (complete control), visual, 12 to 14 days, read-out: Plant response rating, Nightshade): 80%; pest or weed control at 62 g/ha ([3]; Cynodon dactylon, pre-emergence, 312 h, 62 g ai/ha, preemergence, scale 0 to 100, 0 no effect, 100 complete control, read-out: Plant response rating, Bermudagrass): 20%; pest or weed control at 125 g/ha ([3]; Cynodon dactylon, pre-emergence, 312 h, 125 g ai/ha, scale 0 (no effect) to 100 (complete control), visual, 12 to 14 days, read-out: Plant response rating, Bermudagrass): 75%; pest or weed control at 250 g/ha ([3]; Cynodon dactylon, pre-emergence, 312 h, 250 g ai/ha, scale 0 to 100 (0 no effect, 100 complete control), visual, 12 to 14 days, read-out: Plant response rating, Bermudagrass): 90%; pest or weed control at 500 g/ha ([3]; Cynodon dactylon, pre-emergence, 312 h, Preemergence, 500 g ai/ha, scale 0 to 100, 0 no effect, 100 complete control, read-out: Bermudagrass plant response rating): 95%; pest or weed control at 62 g/ha ([4]; Digitaria sanguinalis, pre-emergence, 312 h, 62 g ai/ha, preemergence, scale 0 to 100, read-out: Plant response rating, Crabgrass, Large): 0%; pest or weed control at 125 g/ha ([4]; Digitaria sanguinalis, pre-emergence, 312 h, 125 g ai/ha, scale 0 (no effect) to 100 (complete control), visual, 12 to 14 days, read-out: Plant response rating, Crabgrass, Large): 25%; pest or weed control at 250 g/ha ([4]; Digitaria sanguinalis, pre-emergence, 312 h, 250 g ai/ha, scale 0 to 100 (0 no effect, 100 complete control), visual, 12 to 14 days, read-out: Plant response rating, Crabgrass, Large): 75%; Crabgrass, Large plant response rating ([4]; 500 g ai/ha): 100
6 | CCc1nn(C(C)(C)C)cc1C(=O)Nc1cc(C(=O)N(C)C)ccn1 [Compound 293] | 80 | 100 | 100 | 65 | 100 | 100 | 100 | 90 | 95 | 100 | 100 | 95 | 95 | 100 | 100 | 0 | 65 | 80 | 95 |  | 
7 | C=CCNC(=O)c1cccc(NC(=O)c2nn(C(C)(C)C)nc2CC)c1 [Compound 414] | 90 |  | 100 | 85 |  |  | 100 | 100 |  | 100 |  | 100 |  | 100 | 100 |  |  |  |  |  | Plant response rating (0 = no effect, 100 = complete control), Velvetleaf ([1]; 125 g ai/ha, preemergence): 100; Plant response rating (0 = no effect, 100 = complete control), Nightshade ([2]; 125 g ai/ha, preemergence): 90; Plant response rating (0 = no effect, 100 = complete control), Bermudagrass ([3]; 125 g ai/ha, preemergence): 100; Plant response rating, Bermudagrass [3, 8]: 100; Plant response rating (0 = no effect, 100 = complete control), Crabgrass, Large ([4]; 125 g ai/ha, preemergence): 100
